Assay [1] concerns LNCap prostate tumor cells. As to the kind of experiment: In vitro cytotoxicity, Alamar Blue assay, LNCaP cell kill in 72 hrs. Format: cell-based. As to conditions: Table 3, 3 days, TFA salt of cytotoxic agent unless otherwise indicated, read-out: LNCaP Cell Kill in 72 HRS EC5O. The protocol: (§1) The cytotoxicities of the vinca alkaloid derivatives, prepared as described in Example 1, and the cleaveable oligopeptide-vinca drug conjugates, prepared as described in Examples 2 and 2A, against a line of cells which is known to be killed by unmodified vinca drug was assessed with an Alamar Blue assay. Specifically, cell cultures of LNCap prostate tumor cells, Colo320DM cells (also designated C320), T24 bladder carcinoma cells or T47D breast carcinoma cells in 96 well plates was diluted with medium containing various concentrations of a given conjugate (final plate well volume of 200 μl). The cells were incubated for 3 days at 37° C., 20 μl of Alamar Blue is added to the assay well. The cells were further incubated and the assay plates were read on a EL-310 ELISA reader at the dual wavelengths of 570 and 600 nm at 4 and 7 hours after addition of Alamar Blue. Relative percentage viability at the various concentration of conjugate tested was then calculated versus control (no cytotoxic agent or conjugate) cultures. Unless otherwise indicated, the TFA salt of the cytotoxic agent and the acetate salt of the conjugate were tested.
On the technique in general: Alamar Blue is a resazurin reagent that responds to reducing activity.

In assay [2] the test system is Colo320DM cells (also designated C320). As to the kind of experiment: In vitro cytotoxicity, Alamar Blue assay, Colo320DM cells. The assay is classed as cell-based. The conditions noted are these: Table 3, value in parentheses, TFA salt unless otherwise indicated, read-out: Cell Kill in 72 HRS EC5O, Colo320DM. The protocol: as §1

`CC[C@H](C)[C@@H](CO)NC(=O)[C@@]1(O)[C@H](O)[C@]2(CC)C=CCN3CC[C@@]4(c5cc([C@@]6(C(=O)OC)C[C@H]7CN(CCc8c6[nH]c6ccccc86)C[C@](O)(CC)C7)c(OC)cc5N(C)[C@@H]14)[C@@H]32` [L-isoleucinol-(dAc)-VIN]: the EC50 in assay [1] was 900 nM; in assay [2], 1700 nM.
Consider `CC[C@]1(O)C[C@@H]2CN(CCc3c([nH]c4ccccc34)[C@@](C(=O)OC)(c3cc4c(cc3OC)N(C)[C@H]3[C@@](O)(C(=O)N5CCCC(O)C5)[C@H](O)[C@]5(CC)C=CCN6CC[C@]43[C@@H]65)C2)C1` (single isomer, unassigned; isomer a) [3-hydroxyl-piperidine-(dAc)-VIN, isomer A], for which the EC50 in assay [1] and in assay [2] was 500 nM each time.
On to `CC[C@]1(O)C[C@@H]2CN(CCc3c([nH]c4ccccc34)[C@@](C(=O)OC)(c3cc4c(cc3OC)N(C)[C@H]3[C@@](O)(C(=O)NC(C)C(O)C5CCCCC5)[C@H](O)[C@]5(CC)C=CCN6CC[C@]43[C@@H]65)C2)C1` (single isomer, unassigned; isomer b) [(3-cyclohexyl-3-hydroxyl-2-propylaminol)-(dAc)-VIN isomer B], for which the results for the EC50 in assay [1] and in assay [2] were 1200 nM and 800 nM, respectively.
`CC[C@]1(O)C[C@@H]2CN(CCc3c([nH]c4ccccc34)[C@@](C(=O)OC)(c3cc4c(cc3OC)N(C)[C@H]3[C@@](O)(C(=O)NCC(C)O)[C@H](O)[C@]5(CC)C=CCN6CC[C@]43[C@@H]65)C2)C1` (stereo partly shown) [2-hydroxylpropylamino-(dAc)-VIN]: the EC50 in assay [1] was 1200 nM; in assay [2] it was 2900 nM.
In the case of `CC[C@]1(O)C[C@@H]2CN(CCc3c([nH]c4ccccc34)[C@@](C(=O)OC)(c3cc4c(cc3OC)N(C)[C@H]3[C@@](O)(C(=O)NC5CCCCC5O)[C@H](O)[C@]5(CC)C=CCN6CC[C@]43[C@@H]65)C2)C1` (single isomer, unassigned; isomer b) [(trans-2-hydroxyl)cyclohexylamino-(dAc)-VIN, Isomer B], the EC50 in assay [1] and in assay [2] was 800 nM throughout.
Consider `CCOC(=O)[C@H](CC1CC1)NC(=O)[C@@]1(O)[C@H](O)[C@]2(CC)C=CCN3CC[C@@]4(c5cc([C@@]6(C(=O)OC)C[C@H]7CN(CCc8c6[nH]c6ccccc86)C[C@](O)(CC)C7)c(OC)cc5N(C)[C@@H]14)[C@@H]32` [L-cyclopropyl-alainine-OEt-(dAc)-VIN], for which the EC50 in assay [1] stood at 1400 nM; in assay [2] it was 1000 nM.
As to `CC[C@]1(O)C[C@@H]2CN(CCc3c([nH]c4ccccc34)[C@@](C(=O)OC)(c3cc4c(cc3OC)N(C)[C@H]3[C@@](O)(C(=O)N5CCCC(O)C5)[C@H](O)[C@]5(CC)C=CCN6CC[C@]43[C@@H]65)C2)C1` (single isomer, unassigned; isomer b) [3-hydroxyl-piperidine-(dAc)-VIN, isomer B], in assay [1], the EC50 worked out at 500 nM.
`CC[C@]1(O)C[C@@H]2CN(CCc3c([nH]c4ccccc34)[C@@](C(=O)OC)(c3cc4c(cc3OC)N(C)[C@H]3[C@@](O)(C(=O)NC(CO)c5ccccc5)[C@H](O)[C@]5(CC)C=CCN6CC[C@]43[C@@H]65)C2)C1` (stereo partly shown) [Phenylglyinol-(dAc)-VIN]: the EC50 came to 700 nM in assay [1] and 4800 nM in assay [2].
Regarding `CC[C@]1(O)C[C@@H]2CN(CCc3c([nH]c4ccccc34)[C@@](C(=O)OC)(c3cc4c(cc3OC)N(C)[C@H]3[C@@](O)(C(=O)N[C@H](CO)Cc5ccccc5)[C@H](O)[C@]5(CC)C=CCN6CC[C@]43[C@@H]65)C2)C1` [L-phenylalaninol-(dAc)-VIN], the EC50 in assay [1] was 500 nM; in assay [2], 3500 nM.
Take `CCC1(O)CC2CN(CCc3c([nH]c4ccccc34)C(C(=O)OC)(c3cc4c(cc3OC)N(C)C3C(O)(C(=O)NC(CO)Cc5c[nH]c6ccccc56)C(O)C5(CC)C=CCN6CCC43C65)C2)C1` (stereo not shown) [tryptophanol-(dAc)-VIN]: the EC50 in assay [1] came out at 600 nM; in assay [2], 2900 nM.
Take `CC[C@]1(O)C[C@@H]2CN(CCc3c([nH]c4ccccc34)[C@@](C(=O)OC)(c3cc4c(cc3OC)N(C)[C@H]3[C@@](O)(C(=O)NC(C)C(O)C5CCCCC5)[C@H](O)[C@]5(CC)C=CCN6CC[C@]43[C@@H]65)C2)C1` (single isomer, unassigned; isomer a) [(3-cyclohexyl-3-hydroxyl-2-propylaminol)-(dAc)-VIN isomer A]: the EC50 in assay [1] turned out to be 300 nM; in assay [2], 500 nM.
For `CC[C@]1(O)C[C@@H]2CN(CCc3c([nH]c4ccccc34)[C@@](C(=O)OC)(c3cc4c(cc3OC)N(C)[C@H]3[C@@](O)(C(=O)NC(c5ccccc5)C(O)c5ccccc5)[C@H](O)[C@]5(CC)C=CCN6CC[C@]43[C@@H]65)C2)C1` (stereo partly shown) [1,2-diPhenylethanolamino-(dAc)-VIN], the values for the EC50 in assay [1] and in assay [2] were 2200 nM and 8900 nM, respectively.
Take `CC[C@]1(O)C[C@@H]2CN(CCc3c([nH]c4ccccc34)[C@@](C(=O)OC)(c3cc4c(cc3OC)N(C)[C@H]3[C@@](O)(C(=O)N[C@H](CO)CC5CCCCC5)[C@H](O)[C@]5(CC)C=CCN6CC[C@]43[C@@H]65)C2)C1` [L-cyclolhexyl-alaninol-(dAc)-VIN]: the results for the EC50 in assay [1] and in assay [2] were 1000 nM and 2000 nM, respectively.
Regarding `CCC1(O)CC2CN(CCc3c([nH]c4ccccc34)C(C(=O)OC)(c3cc4c(cc3OC)N(C)C3C(O)(C(=O)NC(C)C(O)c5ccccc5)C(O)C5(CC)C=CCN6CCC43C65)C2)C1` (single isomer, unassigned; isomer b) [norephedrine-(dAc)-VIN, isomer B], the EC50 amounted to 200 nM in assay [1] and 400 nM in assay [2].
For `CCC1(O)CC2CN(CCc3c([nH]c4ccccc34)C(C(=O)OC)(c3cc4c(cc3OC)N(C)C3C(O)(C(=O)NC(C)C(O)c5cccc(OC)c5)C(O)C5(CC)C=CCN6CCC43C65)C2)C1` (stereo not shown) [3-methoxy-norephedrine-(dAc)-VIN], the EC50 was 1800 nM in assay [1] and 5100 nM in assay [2].
In the case of `CCC1(O)CC2CN(CCc3c([nH]c4ccccc34)C(C(=O)OC)(c3cc4c(cc3OC)N(C)C3C(O)(C(=O)N5CCC(O)CC5)C(O)C5(CC)C=CCN6CCC43C65)C2)C1` (stereo not shown) [4-hydroxylpiperidine-(dAc)-VIN], the results for the EC50 in assay [1] and in assay [2] were 200 nM and 800 nM, respectively.
As for `CC[C@]1(O)C[C@@H]2CN(CCc3c([nH]c4ccccc34)[C@@](C(=O)OC)(c3cc4c(cc3OC)N(C)[C@H]3[C@@](O)(C(=O)NC5CCCCC5O)[C@H](O)[C@]5(CC)C=CCN6CC[C@]43[C@@H]65)C2)C1` (single isomer, unassigned; isomer a) [(trans-2-hydroxyl)cyclohexylamine-(dAc)-VIN, Isomer A], the EC50 in assay [1] was 100 nM; in assay [2], 200 nM.
In the case of `CC[C@]1(O)C[C@@H]2CN(CCc3c([nH]c4ccccc34)[C@@](C(=O)OC)(c3cc4c(cc3OC)N(C)[C@H]3[C@@](O)(C(=O)NCC5(O)CCCCC5)[C@H](O)[C@]5(CC)C=CCN6CC[C@]43[C@@H]65)C2)C1` [1-hydroxylcyclohexylmethyamino-(dAc)-VIN], the EC50 in assay [1] was determined as 500 nM; in assay [2], 15800 nM.
With `CCC(CO)NC(=O)[C@@]1(O)[C@H](O)[C@]2(CC)C=CCN3CC[C@@]4(c5cc([C@@]6(C(=O)OC)C[C@H]7CN(CCc8c6[nH]c6ccccc86)C[C@](O)(CC)C7)c(OC)cc5N(C)[C@@H]14)[C@@H]32` (stereo partly shown) [2-Aminobutanol-(dAc)-VIN], the values for the EC50 in assay [1] and in assay [2] were 2900 nM and 7100 nM, respectively.
Take `CC[C@]1(O)C[C@@H]2CN(CCc3c([nH]c4ccccc34)[C@@](C(=O)OC)(c3cc4c(cc3OC)N(C)[C@H]3[C@@](O)(C(=O)N[C@H](CO)CC(C)C)[C@H](O)[C@]5(CC)C=CCN6CC[C@]43[C@@H]65)C2)C1` [L-leucinol-(dAc)-VIN]: the EC50 in assay [1] worked out at 700 nM; in assay [2], 2000 nM.
Consider `CC[C@]1(O)C[C@@H]2CN(CCc3c([nH]c4ccccc34)[C@@](C(=O)OC)(c3cc4c(cc3OC)N(C)[C@H]3[C@@](O)(C(=O)NC(CO)CO)[C@H](O)[C@]5(CC)C=CCN6CC[C@]43[C@@H]65)C2)C1` [Serinol-(dAc)-VIN], for which the EC50 turned out to be 800 nM in assay [1] and 8300 nM in assay [2].
The like results for `CC[C@]1(O)C[C@@H]2CN(CCc3c([nH]c4ccccc34)[C@@](C(=O)OC)(c3cc4c(cc3OC)N(C)[C@H]3[C@@](O)(C(=O)N[C@H](CO)C(C)C)[C@H](O)[C@]5(CC)C=CCN6CC[C@]43[C@@H]65)C2)C1` [L-Valinol-(dAc)-VIN] were, in that order, 400 nM and 800 nM.
The like results for `CC[C@]1(O)C[C@@H]2CN(CCc3c([nH]c4ccccc34)[C@@](C(=O)OC)(c3cc4c(cc3OC)N(C)[C@H]3[C@@](O)(C(=O)N5CCC(O)C5)[C@H](O)[C@]5(CC)C=CCN6CC[C@]43[C@@H]65)C2)C1` (stereo partly shown) [3-hydroxylpyrrolidine-(dAc)-VIN] were, in that order, 200 nM and 1500 nM.
In the case of `CCC1(O)CC2CN(CCc3c([nH]c4ccccc34)C(C(=O)OC)(c3cc4c(cc3OC)N(C)C3C(O)(C(=O)NC(C)C(O)c5ccccc5)C(O)C5(CC)C=CCN6CCC43C65)C2)C1` (single isomer, unassigned; isomer a) [norephedrine-(dAc)-VIN, isomer A], the EC50 in assay [1] and in assay [2] was 3000 nM each time.
Regarding `CC[C@]1(O)C[C@@H]2CN(CCc3c([nH]c4ccccc34)[C@@](C(=O)OC)(c3cc4c(cc3OC)N(C)[C@H]3[C@@](O)(C(=O)OC)[C@H](O)[C@]5(CC)C=CCN6CC[C@]43[C@@H]65)C2)C1` [(dAc)-VINBLASTINE, desacetylvinblastine, reference compound], the results for the EC50 in assay [1] and in assay [2] were 300 nM and 500 nM, respectively.
